Reference: EP2958945B1, “COMBINATION THERAPY INVOLVING ANTIBODIES AGAINST CLAUDIN 18.2 FOR TREATMENT OF CANCER” (Astellas Pharma Inc., priority 2013, dated 2014)

Experiments:
[1] = tested on: Kato III cells; test: Cell cycle analysis and cell growth, Kato III; type: cell-based, human; conditions: for cell cycle arrest: Kato III pretreated for 4 days
Procedure: Kato III cells, a human gastric tumor cell line, was cultivated in RPMI 1640 medium (Invitrogen) containing 20% FCS (Perbio) and 2 mM Glutamax (Invitrogen) at 37°C and 5% CO2, with or without cytostatic compounds. 5-FU (Neofluor from NeoCorp AG) was tested at a concentration of 10 or 100 ng/ml, and oxaliplatin (Hospira) was tested at a concentration of 50 or 500 ng/ml. […] Cells were harvested with EDTA/trypsin, washed and analysed.
Cell cycle stages were determined based on measurement of cellular DNA content. This allows one to discriminate between cells in the G1-, S- or G2-phase of the cell cycle. In the S-phase DNA duplication occurs whereas in the G2-phase cells grow and prepare for mitosis. Cell cycle analysis was done using the CycleTEST PLUS DNA Reagent Kit from BD Biosciences following the manufacturer's protocol. Flow cytometry acquisition and analysis were performed by using BD FACS CantoII (BD Biosciences) and FlowJo (Tree Star) software.
Kato III cells were pretreated for 4 days with Irinotecan or Docetaxel and analysed for CLDN18.2 expression and cell cycle arrest.

[2] = tested on: CLDN18.2; test: CLDN18.2 expression after 3 days pretreatment, Kato III; type: cell-based, human; conditions: Kato III pretreated 3 days; Irinotecan 1000 ng/ml, Docetaxel 5 ng/ml, Cisplatin 2000 ng/ml; vs medium cultivated cells
[3] = tested on: Kato III cells; test: IMAB362 induced ADCC on chemotherapy pretreated Kato III; type: cell-based, human; conditions: Kato III pretreated 3 days; Irinotecan 1000 ng/ml, Docetaxel 5 ng/ml, Cisplatin 2000 ng/ml
Procedure: (§1) Peripheral blood mononuclear cells (PBMCs) including NK cells, monocytes, […] or other effector cells from healthy human donors were purified by Ficoll Hypaque density centrifugation. Washed effector cells were seeded in X-Vivo medium. Kato III cells which express CLDN18.2 endogenously and are of gastric origin were used as target cells in this setting. Target cells stably expressed luciferase, lucifer yellow, which is oxidized by viable cells only.

[4] = tested on: Kato III cells; test: Viable cells after 3 days pretreatment, Kato III; type: cell-based, human; conditions: Kato III pretreated 3 days; Irinotecan 1000 ng/ml, Docetaxel 5 ng/ml, Cisplatin 2000 ng/ml; vs medium cultivated cells
Procedure: as §1

[5] = tested on: DANG; test: IMAB362-mediated ADCC on chemotherapy pretreated DANG; type: cell-based, human; conditions: DANG pretreated 2 days, Gem 1 ng/ml or Gem 1 ng/ml + Ox 10 ng/ml; vs untreated
Procedure: Pancreatic cancer target cells were seeded two days in advance in flasks to obtain 80-90% confluent cultures on the day ADCC started. […] NUGC-4 sub 10cH11 subE10 Luci#2 cells (8000 cells/well) were seeded in addition as positive controls in all assays. Cells were cultivated for 4-6 h before addition of antibody and purified PBMCs.
PBMCs were prepared from fresh human buffy coat obtained from healthy donors. About 3x 20-25 ml blood was diluted (1:2) with PBS and carefully layered on 4x 15 ml Ficol-Paque Plus (GE Healthcare) in 50 ml Falcon tubes. Gradients were centrifuged (25 min, 700 g). […] The pellets were resuspended in 50 ml PBS/2 mM EDTA and cells were counted. […]
The next day, 10 µl 8% Triton X100/PBS solution was added to the lysis control wells and 10 µl PBS in all other wells. […] Luminescence resulting from the oxidation of […] by the luciferase of viable cells was measured using a microplate-reader (Infinite200, Tecan, Switzerland). Percentage of cellular cytotoxicity was calculated using the following formula: Specific killing (%) = 100−[(RLUsample−RLUtriton)/(RLUmedium ctrl−RLUtriton)×100] […]
On the day ADCC started, the protocol described above was followed and cell surface expression of CLDN18 was determined in FACS analysis as described above.

[6] = tested on: BxPC3-LVT xenografts; test: Subcutaneous BxPC3-LVT xenograft model; type: in vivo, Hsd:Athymic Nude-Foxn1^nu mice; conditions: up to 100 mg/kg gemcitabine without additional IMAB362 treatment
[7] = tested on: DANG; test: Cell cycle analysis, DANG; type: cell-based, human; conditions: Gem 2 ng/ml, two days
Procedure: Cells were plated in six-well plates, and 5-6 hours later chemotherapeutic agents were added for either 24 h 48 h or 3 days. Cells floating in the medium were combined with the adherent cell layer, which was trypsinized. Cells were washed. Either cell cycle analysis was started directly or cell surface staining was done before as described above. Cells are resuspended in 1 ml PBS and added to 3 ml 4% PFA. After 15 min fixation of cells at room temperature cells are pelleted and washed. For RNAse treatment cells were resuspended in 200 µl RNAse (10000 U/ml) plus 0.05% Triton X-100 and incubated for 30 min at 37°C. 1 ml PBS was added and samples were centrifuged and resuspended in 200 µl PBS/PJ 50 µg/ml. At least 30 min later samples were ready to be analyzed by flow cytometry. Cell cycle phase distribution was determined using FlowJo software to analyze DNA content histograms.

[8] = tested on: CLDN18.2; test: CLDN18.2 expression after chemotherapeutic pretreatment (RT-PCR, western blot), DANG; type: cell-based, human; conditions: Gem 1 ng/ml or Gem 1 ng/ml + Ox 10 ng/ml, 2 days, vs untreated
Procedure: For RNA isolation from pancreatic cancer cell lines, cells were seeded in 10 cm dishes and grown for 2-3 days until 80% confluent. RNA was isolated according to instructions supplied with the RNeasy® Mini Kit (Qiagen). cDNA preparation was performed following manufacturers instructions provided with the SuperScript® III First Strand kit (Invitrogen). RNA and cDNA samples were stored at -80°C.
Quantitative analysis of CLDN18.2 transcripts was performed by amplifying oligo(dT)-primed cDNAs in a 40 cycle PCR reaction using PCR primers #5054s (5'-[…]-3') and #5060as (5'-[…]-3') differentiating between CLDN18.1 and CLDN18.2 isoforms. The reaction was prepared with SYBR Green (QuantiTect SYBR Green PCR Kit, Qiagen), which intercalates in double stranded DNA. The reactions and measurements were performed using the ABI-PRISM7900 Sequence Detection System instrument and software (Applied Biosystems).
The relative expression levels of CLDN18 transcripts was computed using ΔΔCT calculation with respect to the house keeping gene HPRT.
For isolation of proteins of pancreatic cancer cell lines, cells were seeded in 10 cm dishes and grown for 2-3 days until 80% confluent. […] Protein concentration was measured in a spectrophotometer (Absorption at 280nm) and samples were stored at -80°C until use. […]

[9] = tested on: MiaPaCa-2-LVT xenografts; test: Subcutaneous MiaPaCa-2-LVT xenograft model; type: in vivo, Hsd:Athymic Nude-Foxn1^nu mice; conditions: up to 100 mg/kg gemcitabine without additional IMAB362 treatment
[10] = tested on: established MiaPaCa-2-LVT xenograft tumors; test: Established MiaPaCa-2-LVT xenograft tumors; type: in vivo, Hsd:Athymic Nude-Foxn1^nu mice; conditions: gemcitabine 2x 150 mg/kg per week, independent from IMAB362 treatment

Row | Compound | claudin18.2 expression [2] | potency of IMAB362 to induce ADCC [3] | level of viable cells [4] | cell cycle arrest [1] | also measured
1 | O=c1[nH]cc(F)c(=O)[nH]1 [5-FU, 5-fluoro-1H-pyrimidine-2,4-dione] |  |  |  |  | cell cycle phase distribution ([1]; Kato III, 5-FU 10 or 100 ng/ml, oxaliplatin 50 or 500 ng/ml, 96 hours): blocked predominantly in the S-phase
2 | N.N.[Cl][Pt][Cl] [Cisplatin, cis-diamminedichloroplatinum(II)] | increased | augmented | lower level of viable cells |  | 
3 | CC(=O)O[C@@]12CO[C@@H]1C[C@H](O)[C@@]1(C)C(=O)[C@H](O)C3=C(C)[C@@H](OC(=O)[C@H](O)[C@@H](NC(=O)OC(C)(C)C)c4ccccc4)C[C@@](O)([C@@H](OC(=O)c4ccccc4)[C@H]21)C3(C)C [Docetaxel, 1,7β,10β-trihydroxy-9-oxo-5β,20-epoxytax-11-ene-2α,4,13α-triyl 4-acetate 2-benzoate 13-{(2R,3S)-3-[(tert-butoxycarbonyl)-amino]-2-hydroxy-3-phenylpropanoate}] | increased | augmented | lower level of viable cells | cell cycle arrest in the G2-phase | 
4 | CCc1c2c(nc3ccc(OC(=O)N4CCC(N5CCCCC5)CC4)cc13)-c1cc3c(c(=O)n1C2)COC(=O)[C@]3(O)CC [Irinotecan, (S)-4,11-diethyl-3,4,12,14-tetrahydro-4-hydroxy-3,14-dioxo1H-pyrano[3',4':6,7]-indolizino[1,2-b]quinolin-9-yl-[1,4'-bipiperidine]-1'-carboxylate] |  | augmented | lower level of viable cells | cell cycle arrest in the S/G2-phase | 
5 | Nc1ccn([C@@H]2O[C@H](CO)[C@@H](O)C2(F)F)c(=O)n1 [gemcitabine, 4-amino-1-(2-deoxy-2,2-difluoro-β-D-erythro-pentofuranosyl)pyrimidin-2(1H)-one] |  |  |  |  | susceptibility for IMAB362 mediated ADCC [5]: higher susceptibility; therapeutic effect on xenograft [6]: no significant therapeutic effect; cell cycle arrest [7]: cell cycle arrest in S-Phase; mRNA and protein levels of CLDN18.2 [8]: increased mRNA and protein levels; therapeutic effect on xenograft [9]: no significant therapeutic effect; tumor growth [10]: strongly inhibited in tumor growth
